{"source": "patent US20070265223A1", "about": "“COMPOSITIONS AND METHODS OF ENHANCING SURVIVABILITY AND REDUCING INJURY OF CELLS, TISSUES, ORGANS, AND ORGANISMS UNDER HYPOXIC OR ISCHEMIC CONDITIONS” (IKARIA, INC., priority 2006, published 2007)", "key": {"[1]": {"settings": "cited from earlier work"}, "[2]": {"settings": "treatment of animals; Zhang et al., Nature 2006; cited from earlier work"}, "[3]": {"test_system": "mice subjected to lethal hypoxia", "experiment": "Protection of mice from lethal hypoxia using 5′-AMP", "type": "in vivo, mouse (C57BI/6)", "settings": "for survival of exposure to hypoxia: 4% oxygen for 60 min; for time to full recovery from lowest temperature: after return to ambient air", "description": "The ability of 5′-AMP to protect mice from lethal hypoxia was determined by comparing the effects of hypoxia on mice treated with 5′-AMP to the effects of hypoxia on untreated mice. Male C57BI/6 mice, 5-6 weeks old, with implanted jugular vein catheter (Taconic) were implanted dorsally with a subcutaneous RFID temperature sensor (IPTT-300, Bio Medic Data Systems, Inc.) and allowed to recover for at least 24 hours. Adenosine-5′-monophosphate (AMP sodium salt, Sigma) was dissolved in water, the osmolarity was adjusted with sodium chloride to 300 mOsm, the pH was adjusted with NaOH to 6.3, and the solution was filtered through a 0.2 um filter. The final AMP concentration was 40 mM. Mice were placed into a tall glass-bottom jar with opaque walls and infused via the jugular vein at a rate of 0.8 ul/min for 59.5 min followed by 1.6 ul/min for 12.8 min (total AMP dose=145 umol/kg) with a syringe pump (Harvard Apparatus), until their subcutaneous temperature had decreased to about 33° C. The infusion was stopped, and the mice were exposed for 60 min to an atmosphere of 4% oxygen constructed by mixing air and nitrogen using mass flow controllers (Sierra Instruments). During the infusion and exposure to hypoxia, the animals' subcutaneous temperature was read every 3-5 min and their vital signs were monitored. At the end if the hypoxic period, the animals were removed to ambient air. Temperature measurements were continued until the animals' temperature had returned to the normal range (FIGS. 1A and 1B). A control mouse was exposed to hypoxia, and its time of death was recorded.\nThe same procedure described above was repeated under conditions wherein the mouse treated with 5′AMP received a constant infusion of 40 mM AMP at 1.6 ul/min for 26.5 min (total AMP dose of 69 umol/kg) until its subcutaneous temperature had reached 33 C. In this case, the AMP-infused mouse (MJVC83) survived exposure to hypoxia for 60 min and recovered fully from the lowest temperature of 24° C. within 1 hour. The control mouse (MJVC84) died after 8.5 min of hypoxia with a final temperature of 32.7° C. (FIGS. 2A and 2B)."}, "[4]": {"test_system": "rats subjected to lethal hypoxia", "experiment": "Protection of rats from lethal hypoxia using 5′-AMP", "type": "in vivo, rat (Sprague Dawley)", "settings": "rat RJVC35; 40 mM 5′AMP bolus 258 ul then 31.7 ul/min for 66.4 min, total 270 uM/kg; saline control 8.6 min"}, "[5]": {"test_system": "mice subjected to lethal hypoxia", "experiment": "Protection of mice from lethal hypoxia using adenosine", "type": "in vivo, mouse (C57BI/6)", "settings": "two mice", "description": "The ability of adenosine to protect mice from lethal hypoxia was determined by comparing the effects of hypoxia on mice treated with adenosine to the effects of hypoxia on untreated mice. Male C57BI/6 mice, 5-8 weeks old, with implanted jugular vein catheter (Taconic) were implanted dorsally with a subcutaneous RFID temperature sensor (PTT-300, Bio Medic Data Systems, Inc.) and allowed to recover for at least 24 hours after implantation. Mice were injected with adenosine (19 mM, 3.2 μl/min total dose approximately 27 mg/kg) and temperature was monitored via the temperature sensor until subcutaneous body temperature had decreased to about 33° C. The infusion was stopped, and these mice, as well as control mice injected with sodium chloride) were exposed for 60 min to an atmosphere of 4% oxygen constructed by mixing air and nitrogen using mass flow controllers (Sierra Instruments). During the infusion and exposure to hypoxia, the animals' subcutaneous temperature was monitored every 3-5 min and their vital signs were monitored. In parallel, a control mouse was injected with vehicle (sodium chloride; NaCI; 137 mM, 3.2 μl/min, total dose of NaCl administered was approximately 41 mg/kg) and put into a hypoxic atmosphere (4% O2) at the same time as the mouse injected with adenosine, and its behavior and body temperature monitored. Following 60 min in hypoxic conditions, the mice (MJVC104 and MJVC 108) treated with adenosine were transferred into room air, and recovery of the mice was recorded by observing behavior and monitoring body temperature. […] The control mice (MJVC105 and MJVC107) died after approximately six minutes in the hypoxic atmosphere (4% O2; FIGS. 4B and 5B)."}, "[6]": {"settings": "adenosine approximately 27 mg/kg, after 60 min 4% O2"}}, "note": "Where two headings read alike, the source gives them in different places."}
{"smiles": "[C-]#[O+]", "note": "[carbon monoxide]", "values": [{"measurement": "symptoms on exposure", "setting": "[1]; 50 ppm", "value": "no symptoms"}, {"measurement": "symptoms on exposure", "setting": "[1]; 200 ppm, within two-three hours", "value": "slight headache"}, {"measurement": "symptoms on exposure", "setting": "[1]; 400 ppm, within one to two hours", "value": "frontal headache"}, {"measurement": "symptoms on exposure", "setting": "[1]; 800 ppm, within 45 minutes", "value": "dizziness, nausea, and/or convulsions"}, {"measurement": "lethality on exposure", "setting": "[1]; around 1000 ppm, exposure for more than around 1-2 minutes, an organism", "value": "expire"}]}
{"smiles": "Nc1ncnc2c1ncn2[C@@H]1O[C@H](COP(=O)(O)O)[C@@H](O)[C@H]1O", "note": "[5′-AMP, Adenosine-5′-monophosphate]", "values": [{"measurement": "induction of torpor (depressed body temperature, mClps expression)", "setting": "[2]", "value": "induced torpor"}, {"measurement": "survival of exposure to hypoxia", "setting": "[3]; mouse MJVC80, 40 mM AMP jugular vein infusion 0.8 ul/min 59.5 min then 1.6 ul/min 12.8 min, total 145 umol/kg", "value": "survived"}, {"measurement": "time to full recovery from lowest temperature", "setting": "[3]; mouse MJVC80, total AMP dose 145 umol/kg", "value": "≤ 1", "unit": "h"}, {"measurement": "survival of exposure to hypoxia", "setting": "[3]; mouse MJVC83, constant infusion 40 mM AMP 1.6 ul/min 26.5 min, total 69 umol/kg", "value": "survived"}, {"measurement": "time to full recovery from lowest temperature", "setting": "[3]; mouse MJVC83, total AMP dose 69 umol/kg", "value": "≤ 1", "unit": "h"}, {"measurement": "time of survival in 3.5% oxygen", "setting": "[4]", "value": 38.2, "unit": "min"}]}
{"smiles": "Nc1ncnc2c1ncn2[C@@H]1O[C@H](CO)[C@@H](O)[C@H]1O", "note": "[adenosine]", "values": [{"measurement": "survival of hypoxic atmosphere", "setting": "[5]; adenosine 19 mM, 3.2 μl/min, total approximately 27 mg/kg, 4% O2 for 60 minutes", "value": "survived"}, {"measurement": "behavioral abnormalities the following day", "setting": "[5]; [6]", "value": "No behavioral abnormalities"}, {"measurement": "recovery after return to room air", "setting": "[5]; [6]", "value": "recovered completely"}]}
